This data set is described as follows: Determination of bio-accumulation: urinary clearance pharmacokinetic study in rats. It is filed as in vivo, male Sprague Dawley rats.

Here are results for two compounds from patent US7659333B2, “Fluorinated surfactants for use in making a fluoropolymer” (3M Innovative Properties Company, priority 2005, dated 2010).

Protocol: The goal was to measure the total amount of parent compound eliminated via urinary output and estimate the rate of elimination.
The study utilized male Sprague Dawley rats, 6 to 8 weeks of age, and approximately 200 to 250 g body weight at study onset. The test compounds of table 2 were administered at a dose of 73 micro Moles per kg body weight in rats (N=3 animals per tested compound). All test compounds were prepared in sterile deionized water and given to rats via oral gavage. After test compounds administration, the rats were housed individually in metabolism cages for urine collection: 0 to 6 hours, 6 to 24 hours, 24 to 48 hours and 72 to 96 hours. Animals were observed throughout the study for clinical signs of toxicity. Gross necropsy was performed at the termination of each study (96 hours post-dose) with sera and liver samples being retained from each animal.
The concentration of the parent compound or metabolites thereof were quantitatively measured via fluorine NMR on each urine sample for each animal at each time point based on internally added standards.
T ½ and % recovery are based on elimination of the major metabolite—C3F7—O—CHFCOO^−. T1/2 is the renal half-life and is the time required for the amount of a particular substance in a biological system to be reduced to one half of its value by biological processes when the rate of removal is approximately exponential. In these examples the value of T1/2 is calculated by exponential least squares curve fitting (y=Ae^Bx and T1/2=0.693/B) where y represents the concentration of analyte in urine and x represents time in hours.

The half-life is the time in which the quantity being followed falls by half. For `N.O=C(O)C(F)(F)C(F)(F)C(F)(F)C(F)(F)C(F)(F)C(F)(F)C(F)(F)F` [APFO, ammonium perfluorooctanoic acid], the “% Recovery (96 h)” value (male Sprague Dawley rats, 73 micro Moles per kg oral gavage, recovery in urine after 96 h, values marked * based on major metabolite C3F7—O—CHFCOO−) was 6%. For the same compound, for the setting “male Sprague Dawley rats, 73 micro Moles per kg oral gavage, clinical signs observed, gross necropsy at 96 hours post-dose”, the “Compound-related Effects” value was “Hepatomegaly”. Further, the half-life (rat, in vivo, 73 micro Moles per kg body weight, male Sprague Dawley rats, 73 micro Moles per kg oral gavage, urine 0-96 h by fluorine NMR, exponential least squares fit, values marked * based on elimination of major metabolite C3F7—O—CHFCOO−, read-out: T ½ (h) (renal half-life)) is ~550 h.
For the compound C3F7—O—C2HF3—O—CH2—COO^−NH4 [Example 2], the “parent compound in the urine” value (rat, in vivo, po) is reported as “No parent compound observed in the urine”.
